We go through 5 molecules from US11220674B2, “Stabilization of dehydrogenases with stable coenzymes” (ROCHE DIABETES CARE, INC., priority 2009, dated 2022).

Experiment [1] addresses glucose dehydrogenase/NAD system (Bacillus subtilis, UniProt P12310). Put plainly: Photometric glucose determination with GlucDH/NAD, mediator and 2,18-phosphomolybdic acid (reflectance). The note with it: for reflectance of the measured sample: glucose concentration in the region of 800 mg/dl; for reflectance versus glucose concentration: test elements stored at room temperature for 11 weeks, GlucDH, NAD, mediator, 2,18-phosphomolybdic acid. On the procedure:
To determine glucose, various test systems which included in each case glucose dehydrogenase, NAD, a mediator and, where appropriate, an optical indicator were measured photometrically and electrochemically.
For photometric measurements, initially four test elements which had in each case been stored at room temperature for 11 weeks and comprised 2,18-phosphomolybdic acid, besides glucose dehydrogenase, NAD and a mediator, were investigated with various glucose concentrations.

The target in experiment [2] is glucose dehydrogenase (GlucDH), wild-type (Bacillus subtilis, UniProt P12310). Put plainly: Residual activity of GlucDH after dry storage on film with coenzyme. Format: biochemical. The settings on record: after 5 weeks at 32° C. and 85% relative humidity; versus samples stored in refrigerator with desiccant. As for the experimental part: Carba-NAD (FIG. 1A) or NAD were added to the glucose-specific GlucDH. These formulations were in each case applied to Pokalon film (Lonza) and, after drying, stored under warm and moist conditions (32° C., 85% relative humidity). The reaction kinetics and the function plot were subsequently determined at regular intervals. In parallel, at each of the times of measurement a cNAD/NAD analysis and a determination of the residual activity of the enzyme were carried out.
The result of the determination of residual activity of the active GlucDH enzyme after 5 weeks at 32° C. and 85% relative humidity (FIG. 7A) is completely surprising. […] After 24 weeks at 32° C. and 85% relative humidity (FIG. 7B), the residual activity of the enzyme on stabilization with cNAD is still about 25%.

Experiment [3] concerns the target glucose dehydrogenase (GlucDH) (Bacillus subtilis, UniProt P12310). Put plainly: Stability of GlucDH in liquid phase at 50° C. with coenzyme (residual activity). Type of experiment: biochemical. As for the experimental part: FIG. 11A is a depiction of the stability of glucose dehydrogenase in the presence of NAD and cNAD, respectively, in liquid phase at 50° C. over a period of 4 days Test conditions: GlucDH 10 mg/ml; NAD and cNAD, respectively, 12 mg/ml; buffer: 0.1 M Tris, 1.2 M NaCl, pH 8.5; temperature 50° C.
FIG. 11B is a depiction of the stability of glucose dehydrogenase in the presence of NAD and cNAD, respectively, in liquid phase at 50° C. over a period of 14 days at the same test conditions as FIG. 11A.
After 95 hours at 50° C., the residual activity of glucose dehydrogenase in the presence of the native coenzyme NAD is ≈5%, whereas the residual activity of GlucDH in the presence of the artificial coenzyme cNAD is 75% (FIG. 11A). After storage at 50° C. for 336 hours, the residual activity of the enzyme stabilized with NAD is now only about 1%; the residual activity of the enzyme stored in the presence of cNAD is observed to be still about 70%.

The target of experiment [4] is T1, alcohol dehydrogenase from yeast (Saccharomyces cerevisiae, UniProt P00330).
T1 sequence (P00330 1-348): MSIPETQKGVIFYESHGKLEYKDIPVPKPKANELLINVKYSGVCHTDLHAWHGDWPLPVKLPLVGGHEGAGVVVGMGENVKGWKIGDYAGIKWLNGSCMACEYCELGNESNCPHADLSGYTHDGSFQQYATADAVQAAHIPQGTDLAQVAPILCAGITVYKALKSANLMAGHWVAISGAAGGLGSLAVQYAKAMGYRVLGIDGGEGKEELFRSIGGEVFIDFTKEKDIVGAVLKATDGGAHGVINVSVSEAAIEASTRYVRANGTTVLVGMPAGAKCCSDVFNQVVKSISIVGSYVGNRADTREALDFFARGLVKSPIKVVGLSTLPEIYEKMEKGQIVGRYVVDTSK
Put plainly: Stability of alcohol dehydrogenase in liquid phase at 35° C. with coenzyme (residual activity). Format: biochemical. The note with it: after 65 hours at 35° C. On the procedure:
FIG. 14 is a depiction of the stability of alcohol dehydrogenase from yeast in the presence of NAD and cNAD, respectively, in liquid phase at 35° C. over a period of 65 hours. Test conditions: ADH 5 mg/ml; NAD and cNAD, respectively, 50 mg/ml; buffer: 75 mM Na4P207, glycine, pH 9.0; temperature 35° C.
cNAD or NAD were added to an alcohol detection solution. These mixtures were stored at 35° C. The stability of the enzyme was then checked at regular intervals, and the residual activity of the enzyme was determined.
After 65 hours at 35° C., the residual activity of alcohol dehydrogenase in the presence of the native coenzyme NAD is about 6%, whereas the residual activity of the enzyme in the presence of the artificial coenzyme cNAD is still about 60%.

Chain of glucose dehydrogenase/NAD system (P12310 whole entry): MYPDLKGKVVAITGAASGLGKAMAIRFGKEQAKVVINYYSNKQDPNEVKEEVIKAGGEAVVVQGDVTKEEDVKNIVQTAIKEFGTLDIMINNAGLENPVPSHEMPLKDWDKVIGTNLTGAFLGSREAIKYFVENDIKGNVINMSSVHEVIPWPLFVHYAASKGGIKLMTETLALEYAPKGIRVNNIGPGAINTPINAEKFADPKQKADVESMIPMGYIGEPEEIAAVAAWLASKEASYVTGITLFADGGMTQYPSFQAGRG
Chain of glucose dehydrogenase (GlucDH) (P12310 whole entry): as above
Chain of glucose dehydrogenase (GlucDH), wild-type (P12310 whole entry): as above

`Cl.O=Nc1ccc(N(CO)CO)cc1` [Med A, [(4-nitrosophenyl)imino]dimethanol hydrochloride]: in experiment [1], the “reflectance of the measured sample” value is recorded as “about 20%” and the “reflectance versus glucose concentration” value was “a fall in the reflectance was observed with increasing glucose concentration”.

As for `C[n+]1cccc2c1-c1ncccc1C(=O)C2=O.O=S(=O)([O-])C(F)(F)F` [Med B, 1-methyl-5,6-dioxo-5,6-dihydro-1, 10-phenanthrolinium trifluoromethanesulfonate], the “reflectance versus glucose concentration” value in experiment [1] is “a fall in the reflectance was observed with increasing glucose concentration”.

On to `C[n+]1cccc2c1C(=O)C(=O)c1cccnc1-2.O=S(=O)([O-])C(F)(F)F` [Med F, 7-methyl-5,6-dioxo-5,6-dihydro-1,7-phenanthrolinium trifluoromethanesulfonate], for which, in experiment [1], the “reflectance versus glucose concentration” value is on record as “a fall in the reflectance was observed with increasing glucose concentration”.

Turning to `CC[n+]1c2ccccc2nc2c(OCCCC(=O)O)cccc21.O=S(=O)([O-])C(F)(F)F` [Med G, 1-(3-carboxypropoxy)-5-ethylphenazinium trifluoromethanesulfonate], in experiment [1], the “reflectance of the measured sample” value is recorded as “about 20%” and the “reflectance versus glucose concentration” value is reported as “a fall in the reflectance was observed with increasing glucose concentration”.

In the case of `NC(=O)c1ccc[n+]([C@@H]2O[C@H](COP(=O)([O-])OP(=O)(O)OC[C@H]3O[C@@H](n4cnc5c(N)ncnc54)[C@H](O)[C@@H]3O)[C@@H](O)[C@H]2O)c1` [NAD, nicotinamide adenine dinucleotide, reference compound], the “residual activity of GlucDH enzyme” value in experiment [2] is 0.5%. The “residual activity of glucose dehydrogenase” value is reported as “≈ 5%” in experiment [3] (after 95 hours at 50° C.) and “about 1%” in experiment [3] (storage at 50° C. for 336 hours). In addition, the “residual activity of alcohol dehydrogenase” value in experiment [4] is given as “about 6%”.
